Reference: patent publication US6589970B2, “6-(aryl-amido or aryl-amidomethyl)-naphthalen-2-yloxy-acidic derivatives as inhibitors of plasminogen activator inhibitor type-1 (PAI-1)” (Wyeth, priority 2001, dated 2003)
Where a name gives a salt, the structure may show the parent alone.

Assays:
[1] = molecular target: T1, recombinant human plasminogen activator inhibitor-1 (PAI-1) (Homo sapiens, UniProt P05121); test: Primary Screen for the PAI-1 Inhibition; type: biochemical; conditions: for inhibition at 25 µM: 25 μM test compound, read-out: % Inhib. 25 μM; for inhibition at 100 µM: 100 μM test compound, read-out: % Inhib. 100 μM
T1 construct: purchased Molecular Innovations, Royal Oak, Mich
Method in brief: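 Compound (1-100 μM final, ≤0.2% DMSO) was preincubated for 1 h at room temperature with 140 nM recombinant human PAI-1 at pH 6.6. tPA was then added at 70 nM for 30 min. Residual tPA activity was measured with Spectrozyme-tPA (A405 at 0 and 60 min) and taken as relative PAI-1 inhibition.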

[2] = molecular target: T1, recombinant human plasminogen activator inhibitor-1 (PAI-1); test: Modification of the Primary Screen for the PAI-1 Inhibition (IC50); type: biochemical
Experimental: Test compounds are dissolved in DMSO at a final concentration of 10 mM, then diluted 100× in physiologic buffer. The inhibitory assay is initiated by the addition of the test compound (1-100 μM final concentration, maximum DMSO concentration of 0.2%) in a pH 6.6 buffer containing 140 nM recombinant human plasminogen activator inhibitor-1 (PAI-1; Molecular Innovations, Royal Oak, Mich.). Following a 1 hour incubation at room temperature, 70 nM of recombinant human tissue plasminogen activator (tPA) is added, and the combination of the test compound, PAI-1 and tPA is incubated for an additional 30 minutes. Following the second incubation, Spectrozyme-tPA (American Diagnostica, Greenwich, Conn.), a chromogenic substrate for tPA, is added and absorbance read at 405 nm at 0 and 60 minutes. Relative PAI-1 inhibition is equal to the residual tPA activity in the presence of the test compound and PAI-1. Control treatments include the complete inhibition of tPA by PAI-1 at the molar ratio employed (2:1), and the absence of any effect of the test compound on tPA alone.

human PAI-1 = human PAI-1 (Homo sapiens, UniProt P05121); test: Assay for Determining IC50 of Inhibition of PAI-1 (Antibody Assay); type: biochemical; conditions: active PAI-1 bound to tPA-coated plate
Experimental: This assay is based upon the non-SDS dissociable interaction between tPA and active PAI-1. Assay plates are initially coated with human tPA (10 μg/ml). The test compounds are dissolved in DMSO at 10 mM, then diluted with physiologic buffer (pH 7.5) to a final concentration of 1-50 μM. The test compounds are incubated with human PAI-1 (50 ng/ml) for 15 minutes at room temperature. The tPA-coated plate is washed with a solution of 0.05% Tween 20 and 0.1% BSA, then the plate is blocked with a solution of 3% BSA. An aliquot of the test compound/PAI-1 solution is then added to the tPA-coated plate, incubated at room temperature for 1 hour, and washed. Active PAI-1 bound to the plate is assessed by adding an aliquot of a 1:1000 dilution of the 33B8 monoclonal antibody against human PAI-1, and incubating the plate at room temperature for 1 hour (Molecular Innovations, Royal Oak, Mich. The plate is again washed, and a solution of goat anti-mouse IgG-alkaline phosphatase conjugate is added at a 1:50,000 dilution in goat serum. The plate is incubated 30 minutes at room temperature, washed, and a solution of alkaline phosphatase substrate is added. The plate is incubated 45 minutes at room temperature, and color development is determined at OD405nm. The quantitation of active PAI-1 bound to tPA at varying concentrations of the test compound is used to determine the IC50. Results are analyzed using a logarithmic best-fit equation. The assay sensitivity is 5 ng/ml of human PAI-1 as determined from a standard curve ranging from 0-100 ng/ml.

T1 sequence (P05121 24-402): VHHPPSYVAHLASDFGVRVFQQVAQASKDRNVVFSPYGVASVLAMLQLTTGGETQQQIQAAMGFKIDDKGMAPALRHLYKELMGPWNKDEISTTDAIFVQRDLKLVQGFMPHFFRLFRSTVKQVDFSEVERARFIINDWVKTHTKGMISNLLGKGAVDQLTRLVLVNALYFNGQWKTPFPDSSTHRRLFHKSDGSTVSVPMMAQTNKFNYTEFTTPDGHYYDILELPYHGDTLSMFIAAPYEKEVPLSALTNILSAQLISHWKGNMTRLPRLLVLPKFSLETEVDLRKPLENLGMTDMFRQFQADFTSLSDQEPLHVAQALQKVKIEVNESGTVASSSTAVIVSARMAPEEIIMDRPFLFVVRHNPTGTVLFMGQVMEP
Sequence of human PAI-1 (P05121 24-402): as above

Structure (SMILES): CCCCc1oc2ccccc2c1C(=O)N(Cc1ccccc1)Cc1ccc2c(Br)c(OCc3nnn[nH]3)ccc2c1 [Example 48, 2-Butyl-benzofuran-3-carboxylic acid benzyl-[5-bromo-6-(1H-tetrazol-5-ylmethoxy)-naphthalen-2-ylmethyl]-amide]
- inhibition at 25 µM [1]: 48%
- inhibition at 100 µM [1]: 85%
- IC50 [2]: 20.9 µM
- IC50 (human PAI-1): 17.5 µM

Structure (SMILES): CCCCc1oc2ccccc2c1C(=O)NCc1ccc2c(-c3ccc(Cl)cc3)c(OCc3nnn[nH]3)ccc2c1 [Example 26, 2-Butyl-benzofuran-3-carboxylic acid [5-(4-chloro-phenyl)-6-(1-tetrazol-5-ylmethoxy)-naphthalen-2-ylmethyl]-amide]
- inhibition at 25 µM [1]: 20%
- inhibition at 100 µM [1]: 98%
- IC50 [2]: 4.3 µM
- melting point: 208 to 211 °C

Structure (SMILES): O=C(NCc1ccc2c(Br)c(OC(Cc3ccccc3)C(=O)O)ccc2c1)c1ccc(C2CCCCC2)cc1 (stereo not drawn) [Example 55]
- inhibition at 25 µM [1]: 35%
- inhibition at 100 µM [1]: 60%
- IC50 [2]: 11.8 µM
- IC50 (human PAI-1): 16.8 µM

Structure (SMILES): CCCCc1oc2ccccc2c1C(=O)N(C)Cc1ccc2c(Br)c(OCc3nnn[nH]3)ccc2c1 [Example 31, 2-Butyl-benzofuran-3-carboxylic acid [5-bromo-6-(1H-tetrazol-5-ylmethoxy)-naphthalen-2-ylmethyl]-methyl-amide]
- inhibition at 25 µM [1]: 62%
- inhibition at 100 µM [1]: 95%
- IC50 [2]: 15.6 µM
- IC50 (human PAI-1): 8.47 µM
- melting point: 190 to 194 °C

Structure (SMILES): O=C(O)COc1ccc2cc(CNC(=O)c3cc(-c4ccccc4Cl)oc3C(F)(F)F)ccc2c1 [Example 81, [6-({[5-(2-Chloro-phenyl)-2-trifluoromethyl-furan-3-carbonyl]-amino}-methyl)-naphthalen-2-yloxy]-acetic acid]
- inhibition at 25 µM [1]: 12%
- inhibition at 100 µM [1]: 78%
- IC50 [2]: 36.5 µM

Structure (SMILES): CCCCc1oc2ccccc2c1C(=O)NCc1ccc2c(-c3ccccc3)c(OCc3nnn[nH]3)ccc2c1 [Example 24, 2-Butyl-benzofuran-3-carboxylic acid [5-phenyl-6-(1H-tetrazol-5-ylmethoxy)-naphthalen-2-ylmethyl]-amide]
- inhibition at 25 µM [1]: 25%
- inhibition at 100 µM [1]: 72%
- IC50 [2]: 9.94 µM
- IC50 (human PAI-1): 16.8 µM
- melting point: 192 to 196 °C

Structure (SMILES): O=C(NCc1ccc2c(Br)c(OC(Cc3ccccc3)C(=O)O)ccc2c1)c1ccc(Oc2cc(Cl)cc(Cl)c2)o1 (stereo not drawn) [Example 53, 2-[1-Bromo-6-({[5-(3,5-dichloro-phenoxy)-furan-2-carbonyl]-amino}-methyl)-naphthalen-2-yloxy]-3-phenyl-propionic acid]
- inhibition at 25 µM [1]: 35%
- inhibition at 100 µM [1]: 86%
- IC50 [2]: 8.7 µM
- IC50 (human PAI-1): 8.12 µM
- melting point: 86 to 100 °C

Structure (SMILES): CCCCc1oc2ccccc2c1C(=O)NCc1ccc2c(-c3ccccc3)c(OCC(=O)O)ccc2c1 [Example 28, (6-{[(2-Butyl-benzofuran-3-carbonyl)-amino]-methyl}-1-phenyl-naphthanen-2-yloxy)-acetic acid]
- inhibition at 25 µM [1]: 22%
- inhibition at 100 µM [1]: 100%
- IC50 [2]: 20.2 µM
- melting point: 180 to 183 °C

Structure (SMILES): CCCCc1oc2ccccc2c1C(=O)N(CCCC)Cc1ccc2c(Br)c(OCc3nnn[nH]3)ccc2c1 [Example 51, 2-Butyl-benzofuran-3-carboxylic acid [5-bromo-6-(1H-tetrazol-5-ylmethoxy)-naphthalen-2-ylmethyl]-butyl-amide]
- inhibition at 25 µM [1]: 69%
- inhibition at 100 µM [1]: 91%
- IC50 [2]: 6.9 µM
- IC50 (human PAI-1): 18.7 µM

Structure (SMILES): CCCCc1oc2ccccc2c1C(=O)NCc1ccc2c(Br)c(OCc3nnn[nH]3)ccc2c1.[Na] [Example 17, 2-Butyl-benzofuran-3-carboxylic acid [5-bromo-6-(1H-tetrazol-5-ylmethoxy)-naphthalen-2-ylmethyl]-amide sodium salt]
- inhibition at 100 µM [1]: 80%
- IC50 [2]: 1.4 µM
- IC50 (human PAI-1): 16.1 µM
- melting point: 214 to 215 °C

Structure (SMILES): CC(C)(C)c1cc(C(=O)NCc2ccc3c(Br)c(OC(Cc4ccccc4)C(=O)O)ccc3c2)cc(C(C)(C)C)c1 (stereo not drawn) [Example 56, 2-{1-Bromo-6-[(3,5-di-tert-butyl-benzoylamino)-methyl]-naphthalen-2-yloxy}-3-phenyl-propionic acid]
- inhibition at 25 µM [1]: 84%
- inhibition at 100 µM [1]: 100%
- IC50 [2]: 1.9 µM
- melting point: 160 to 163 °C

Structure (SMILES): CCCCc1oc2ccccc2c1C(=O)Nc1ccc2c(Br)c(OC(Cc3ccccc3)C(=O)O)ccc2c1 (stereo not drawn) [Example 7, 2-{1-Bromo-6-[(2-butyl-benzofuran-3-carbonyl)-amino]-naphthalen-2-yloxy}-3-phenyl-propionic acid]
- inhibition at 25 µM [1]: 64%
- inhibition at 100 µM [1]: 83%
- IC50 [2]: 7.8 µM
- IC50 (human PAI-1): 16.6 µM

Structure (SMILES): CCCCc1oc2ccccc2c1C(=O)Nc1ccc2cc(OCc3nn[nH]n3)ccc2c1 [Example 3, 2-Butyl-benzofuran-3-carboxylic acid [6-(2H-tetrazol-5-ylmethoxy)-naphthalen-2-yl]-amide]
- inhibition at 25 µM [1]: 38%
- inhibition at 100 µM [1]: 75%
- IC50 [2]: 3.2 µM
- melting point: 194 to 198 °C

Structure (SMILES): CCCc1c(C(=O)NCc2ccc3c(Br)c(OC(Cc4ccccc4)C(=O)O)ccc3c2)cnn1-c1ccccc1 (stereo not drawn) [Example 54, 2-(1-Bromo-6-{[(1-phenyl-5-propyl-1H-pyrazole-4-carbonyl)-amino]-methyl}-naphthalen-2-yloxy)-3-phenyl-propionic acid]
- inhibition at 25 µM [1]: 18%
- inhibition at 100 µM [1]: 80%
- IC50 [2]: 11.8 µM

Structure (SMILES): CCCCc1oc2ccccc2c1C(=O)NCc1ccc2c(-c3ccc(OC)cc3)c(OCc3nnn[nH]3)ccc2c1 [Example 25, 2-Butyl-benzofuran-3-carboxylic [5-(4-methoxy phenyl)-6-(1H-tetrazol-5-ylmethoxy)-naphthalen-2-ylmethyl]-amide, sodium salt]
- inhibition at 25 µM [1]: 3%
- inhibition at 100 µM [1]: 94%
- IC50 [2]: 4.6 µM
